Data from ChEMBL document CHEMBL5390283, “Discovery of PVD-06 as a Subtype-Selective and Efficient PTPN2 Degrader” (J Med Chem, 2023).
pIC50: −log10 of the molar value.

Key:
[1] = target: T1, Tyrosine-protein phosphatase non-receptor type 1 (Homo sapiens, UniProt P18031); assay: Inhibition of 6xHis-tagged PTP1B (unknown origin) Escherichia coli BL21 (DE3)-RIL using OMFP as substrate incubated for 30 mins by fluorescence based assay
T1 sequence (P18031 whole entry): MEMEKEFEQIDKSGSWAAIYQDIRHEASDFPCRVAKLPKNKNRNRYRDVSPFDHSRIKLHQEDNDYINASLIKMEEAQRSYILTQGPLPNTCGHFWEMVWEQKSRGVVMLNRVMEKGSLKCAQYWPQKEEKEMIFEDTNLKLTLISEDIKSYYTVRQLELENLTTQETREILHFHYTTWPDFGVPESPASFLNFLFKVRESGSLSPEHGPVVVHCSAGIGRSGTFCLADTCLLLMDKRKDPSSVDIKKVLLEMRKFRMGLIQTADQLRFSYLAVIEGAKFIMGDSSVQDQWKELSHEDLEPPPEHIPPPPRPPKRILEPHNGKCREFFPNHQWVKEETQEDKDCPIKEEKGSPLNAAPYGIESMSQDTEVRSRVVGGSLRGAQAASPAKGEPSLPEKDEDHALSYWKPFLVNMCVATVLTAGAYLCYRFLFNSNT

[2] = target: T2, Tyrosine-protein phosphatase non-receptor type 2 (Homo sapiens, UniProt P17706); assay: Inhibition of PTPN2 (unknown origin) using DiFMUP as substrate by […] based assay
T2 sequence (P17706 whole entry): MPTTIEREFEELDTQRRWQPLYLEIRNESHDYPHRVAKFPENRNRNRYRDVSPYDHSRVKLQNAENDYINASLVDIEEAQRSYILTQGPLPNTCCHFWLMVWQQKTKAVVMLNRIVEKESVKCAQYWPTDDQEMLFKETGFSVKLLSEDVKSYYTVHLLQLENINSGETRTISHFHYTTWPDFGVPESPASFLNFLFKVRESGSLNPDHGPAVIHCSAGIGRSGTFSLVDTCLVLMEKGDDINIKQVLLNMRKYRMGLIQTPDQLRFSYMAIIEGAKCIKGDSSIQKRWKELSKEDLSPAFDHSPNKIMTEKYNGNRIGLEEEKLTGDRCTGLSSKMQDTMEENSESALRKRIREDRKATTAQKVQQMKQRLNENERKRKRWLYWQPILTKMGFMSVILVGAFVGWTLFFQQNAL

[3] = target: T1, Tyrosine-protein phosphatase non-receptor type 1; assay: Inhibition of PTP1B (unknown origin) using DiFMUP as substrate by […] based assay

Row | pIC50 [1] | pIC50 [2] | pIC50 [3] | SMILES
1 | 6.02 |  |  | CC(C)(C)C(=O)Nc1ccc2c(c1)C(=O)C(=O)c1ccccc1-2
2 |  | 7.94 | 8.08 | O=C1CN(c2c(O)cc3ccc(Br)cc3c2F)S(=O)(=O)N1
